Reference: ChEMBL document CHEMBL4184250, “Structure-activity studies of a macrocyclic peptide inhibitor of histone lysine demethylase 4A” (Bioorg Med Chem, 2018)
The source made the active and inactive calls. The rule behind the calls is not given here. Where a SMILES comes first, the peptide text is derived from it. Bridges are numbered along the chain shown (N, C = ends). [ ]: non-standard residue; d: D form. NMeI = CC[C@H](C)[C@H](NC)C(=O)O; NMeC = CN[C@@H](CS)C(=O)O

What was measured:
[1] = target: T1, Lysine-specific demethylase 4A (Homo sapiens) (UniProt O75164); experiment: Inhibition of full length FLAG-tagged KDM4A (unknown origin) expressed in human HeLa cells assessed as increase in H3K9me3 levels at >20 uM after 24 hrs by DAPI staining based immunofluorescence assay; format: cell-based
T1 sequence (whole entry): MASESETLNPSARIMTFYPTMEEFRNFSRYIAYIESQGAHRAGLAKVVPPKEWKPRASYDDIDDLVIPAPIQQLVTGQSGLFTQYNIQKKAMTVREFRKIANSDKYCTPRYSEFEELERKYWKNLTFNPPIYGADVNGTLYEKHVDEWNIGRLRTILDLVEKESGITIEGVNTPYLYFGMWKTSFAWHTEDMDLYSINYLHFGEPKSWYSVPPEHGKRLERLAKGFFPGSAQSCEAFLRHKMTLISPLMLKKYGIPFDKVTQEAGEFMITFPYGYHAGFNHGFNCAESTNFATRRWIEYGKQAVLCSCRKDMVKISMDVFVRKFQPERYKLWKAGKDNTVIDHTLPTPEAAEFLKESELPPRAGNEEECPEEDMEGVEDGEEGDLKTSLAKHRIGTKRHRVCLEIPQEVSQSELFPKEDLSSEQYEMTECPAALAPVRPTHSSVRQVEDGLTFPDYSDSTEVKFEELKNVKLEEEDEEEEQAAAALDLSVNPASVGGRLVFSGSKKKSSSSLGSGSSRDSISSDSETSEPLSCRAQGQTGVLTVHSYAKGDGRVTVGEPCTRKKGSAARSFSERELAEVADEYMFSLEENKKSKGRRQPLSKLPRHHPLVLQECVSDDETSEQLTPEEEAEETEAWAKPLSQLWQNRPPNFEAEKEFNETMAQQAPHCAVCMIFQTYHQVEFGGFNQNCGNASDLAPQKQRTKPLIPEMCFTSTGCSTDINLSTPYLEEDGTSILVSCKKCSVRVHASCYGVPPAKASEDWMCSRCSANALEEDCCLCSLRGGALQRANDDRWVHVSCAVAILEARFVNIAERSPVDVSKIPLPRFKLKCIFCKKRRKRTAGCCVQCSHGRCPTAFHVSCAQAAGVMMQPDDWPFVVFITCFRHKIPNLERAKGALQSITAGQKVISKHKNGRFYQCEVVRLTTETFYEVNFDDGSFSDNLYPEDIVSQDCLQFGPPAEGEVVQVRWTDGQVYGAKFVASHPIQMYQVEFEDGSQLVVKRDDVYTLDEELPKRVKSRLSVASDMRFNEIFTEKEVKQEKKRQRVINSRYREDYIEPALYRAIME

[2] = Drug uptake in human MCF7 cells assessed as cell area stained at 10 uM after 3 hrs by Hoechst 33342 staining based confocal microscopic analysis; format: ADME; conditions: mcf7, 3 h
[3] = target: T2, Lysine-specific demethylase 4C (Homo sapiens, UniProt Q9H3R0); experiment: Inhibition of KDM4C (unknown origin) expressed in Escherichia coli using biotinylated peptide as substrate pretreated for 15 mins followed by substrate addition by Alphascreen assay
T2 sequence (Q9H3R0 whole entry): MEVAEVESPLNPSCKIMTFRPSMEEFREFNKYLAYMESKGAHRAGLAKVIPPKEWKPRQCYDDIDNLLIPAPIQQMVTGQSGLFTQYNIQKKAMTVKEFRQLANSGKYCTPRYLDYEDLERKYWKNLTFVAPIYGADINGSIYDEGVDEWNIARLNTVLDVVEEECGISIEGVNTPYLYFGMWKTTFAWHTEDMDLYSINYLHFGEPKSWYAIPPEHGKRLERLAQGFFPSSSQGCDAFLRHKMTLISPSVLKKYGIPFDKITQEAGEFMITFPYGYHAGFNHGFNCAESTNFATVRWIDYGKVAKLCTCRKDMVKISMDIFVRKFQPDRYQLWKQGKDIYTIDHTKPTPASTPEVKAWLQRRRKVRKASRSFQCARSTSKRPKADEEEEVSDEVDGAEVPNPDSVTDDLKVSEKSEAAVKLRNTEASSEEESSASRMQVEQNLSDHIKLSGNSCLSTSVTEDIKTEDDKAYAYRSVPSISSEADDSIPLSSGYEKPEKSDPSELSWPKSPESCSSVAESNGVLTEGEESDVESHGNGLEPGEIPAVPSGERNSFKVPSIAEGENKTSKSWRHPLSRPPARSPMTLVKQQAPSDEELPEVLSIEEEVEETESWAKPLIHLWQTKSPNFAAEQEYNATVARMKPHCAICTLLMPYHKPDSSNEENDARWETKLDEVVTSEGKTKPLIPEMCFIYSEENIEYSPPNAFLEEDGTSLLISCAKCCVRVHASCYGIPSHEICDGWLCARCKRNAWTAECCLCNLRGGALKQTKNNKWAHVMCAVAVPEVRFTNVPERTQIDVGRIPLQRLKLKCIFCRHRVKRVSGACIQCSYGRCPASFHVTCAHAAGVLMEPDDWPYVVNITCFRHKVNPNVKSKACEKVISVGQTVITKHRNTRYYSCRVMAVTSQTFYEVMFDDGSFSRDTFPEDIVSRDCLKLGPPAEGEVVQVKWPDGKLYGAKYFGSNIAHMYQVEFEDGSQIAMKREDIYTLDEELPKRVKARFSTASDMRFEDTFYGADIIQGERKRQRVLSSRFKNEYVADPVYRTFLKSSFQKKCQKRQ

[4] = target: T3, Lysine-specific demethylase 4A (Homo sapiens, UniProt O75164); experiment: Inhibition of KDM4A (unknown origin) expressed in Escherichia coli using biotinylated peptide as substrate pretreated for 15 mins followed by substrate addition by Alphascreen assay
T3 sequence (O75164 whole entry): T1 sequence (whole entry)

[5] = Drug localization in lysosomes of human MCF7 cells at 10 uM after 3 hrs by Lysotracker red DND-99 staining based confocal microscopic analysis; format: ADME, subcellular, Lysosome; conditions: mcf7, 3 h
[6] = target: T3, Lysine-specific demethylase 4A; experiment: Inhibition of full length FLAG-tagged KDM4A (unknown origin) expressed in human HeLa cells assessed as increase in H3K9me3 levels after 24 hrs by DAPI staining based immunofluorescence assay; format: cell-based
[7] = target: T3, Lysine-specific demethylase 4A; experiment: (§1) Binding affinity to biotinylated-KDM4A (unknown origin) at 300 nM by bio-layer interferometric method; conditions: read-out: Kd(app)
[8] = target: T1, Lysine-specific demethylase 4A (Homo sapiens); experiment: as §1
HeLa [9] = experiment: Cytotoxicity against human HeLa cells expressing FLAG-tagged KDM4A assessed as condensed nucleus at 50 uM after 24 hrs by DAPI staining based immunofluorescence assay; format: cell-based
HeLa [10] = experiment: Cytotoxicity against human HeLa cells expressing FLAG-tagged KDM4A assessed as reduction in cell numbers at >5 uM after 24 hrs by DAPI staining based immunofluorescence assay

inhibition [1]	Drug uptake [2]	IC50 [3]	IC50 [4]	Drug uptake [5]	EC50 [6]	Kd [7]	EC50 ([6]; hela)	Kd(app) [8]	Compound	Activity (HeLa [9])	Activity (HeLa [10])
Active									CC[C@H](C)[C@@H]1NC(=O)CNC(=O)[C@H](CO)NC(=O)[C@H](CCCNC(=N)N)NC(=O)[C@H](CCCNC(=N)N)NC(=O)[C@H](Cc2ccccc2)NC(=O)[C@H](CCCNC(=N)N)NC(=O)[C@H]([C@H](C)O)NC(=O)[C@@H](Cc2ccc(O)cc2)NC(=O)CSC[C@@H](C(N)=O)NC(=O)[C@H](Cc2ccc(O)cc2)NC(=O)[C@H](Cc2ccc(O)cc2)NC(=O)[C@H](Cc2ccccc2)NC(=O)[C@H](C(C)C)NC1=O		
	76.8%	466 nM	615 nM	Active	> 50000 nM	> 300 nM			CC[C@H](C)[C@@H]1NC(=O)CNC(=O)[C@H](CO)NC(=O)[C@H](CCCNC(=N)N)NC(=O)[C@H](CCCNC(=N)N)NC(=O)[C@H]([C@@H](C)CC)NC(=O)[C@H](CCCNC(=N)N)NC(=O)[C@@H]2CCCN2C(=O)[C@H](Cc2ccc(O)cc2)NC(=O)CSC[C@@H](C(N)=O)NC(=O)[C@H](Cc2c[nH]c3ccccc23)NC(=O)[C@H](CCCNC(=N)N)NC1=O ({CH2CO}-YPRIRRSGIRWC-NH2; thioether N-12)		
	Active			Active					N=C(N)NCCC[C@@H]1NC(=O)CNC(=O)[C@H](Cc2ccc(O)cc2)NC(=O)CSC[C@@H](C(N)=O)NC(=O)[C@H](CCCNC(=N)N)NC(=O)[C@H](CCCNC(=N)N)NC(=O)[C@H](CCCNC(=N)N)NC(=O)[C@H](CCC(N)=O)NC(=O)[C@H](CCCNC(=N)N)NC(=O)[C@H](CCCCN)NC(=O)[C@H](CCCCN)NC(=O)[C@H](CCCCN)NC1=O ({CH2CO}-YGRKKKRQRRRC-NH2; thioether N-12)		
Active	7.4%	27 nM	17 nM		> 50000 nM	23 nM			CC[C@H](C)[C@@H]1NC(=O)[C@H](CCCNC(=N)N)NC(=O)[C@H]([C@@H](C)CC)N(C)C(=O)[C@H](Cc2ccc(O)cc2)NC(=O)CSC[C@@H](C(N)=O)N(C)C(=O)[C@H](Cc2c[nH]c3ccccc23)NC(=O)[C@H](CC(C)C)NC(=O)[C@H](Cc2c[nH]c3ccccc23)NC(=O)[C@@H](C)NC(=O)[C@H](CO)NC(=O)[C@H](CCCNC(=N)N)NC(=O)[C@H](CCCNC(=N)N)NC1=O		
	65.3%	23 nM	23 nM	Active	> 50000 nM	42 nM			CC[C@H](C)[C@@H]1NC(=O)[C@H](CCCNC(=N)N)NC(=O)[C@H]([C@@H](C)CC)NC(=O)[C@H](Cc2ccc(O)cc2)NC(=O)CSC[C@@H](C(N)=O)NC(=O)[C@H](Cc2c[nH]c3ccccc23)NC(=O)[C@H](CC(C)C)NC(=O)[C@H](Cc2c[nH]c3ccccc23)NC(=O)CNC(=O)[C@H](CO)NC(=O)[C@H](CCCNC(=N)N)NC(=O)[C@H](CCCNC(=N)N)NC1=O ({CH2CO}-YIRIRRSGWLWC-NH2; thioether N-12)		
	92.7%	38 nM	15 nM			3.1 nM	> 50000 nM		CC[C@H](C)[C@@H]1NC(=O)[C@H](CCCNC(=N)N)NC(=O)[C@H]([C@@H](C)CC)NC(=O)[C@@H](Cc2ccc(O)cc2)NC(=O)CSC[C@@H](C(N)=O)NC(=O)[C@H](Cc2c[nH]c3ccccc23)NC(=O)[C@H](CC(C)C)NC(=O)[C@H](Cc2c[nH]c3ccccc23)NC(=O)[C@@H](C)NC(=O)[C@H](CO)NC(=O)[C@H](CCCNC(=N)N)NC(=O)[C@H](CCCNC(=N)N)NC1=O		
	1.2%	65 nM	269 nM		> 50000 nM			inactive	CC[C@H](C)[C@@H]1NC(=O)[C@H](CCCNC(=N)N)NC(=O)[C@@H]2CCCN2C(=O)[C@H](Cc2ccc(O)cc2)NC(=O)CSC[C@@H](C(N)=O)N(C)C(=O)[C@H](Cc2c[nH]c3ccccc23)NC(=O)[C@H](CCCNC(=N)N)NC(=O)[C@H]([C@@H](C)CC)NC(=O)[C@@H](C)NC(=O)[C@H](CO)NC(=O)[C@H](CCCNC(=N)N)NC(=O)[C@H](CCCNC(=N)N)NC1=O		
	13.4%				> 50000 nM	2.6 nM			CC[C@H](C)[C@@H]1NC(=O)CNC(=O)[C@H](CO)NC(=O)[C@H](CCCNC(=N)N)NC(=O)[C@H](CCCNC(=N)N)NC(=O)[C@H](Cc2ccccc2)NC(=O)[C@H](CCCNC(=N)N)NC(=O)[C@H]([C@@H](C)O)NC(=O)[C@@H](Cc2ccc(O)cc2)NC(=O)CSC[C@@H](C(N)=O)NC(=O)[C@H](Cc2ccc(O)cc2)NC(=O)[C@H](Cc2ccc(O)cc2)NC(=O)[C@H](Cc2ccccc2)NC(=O)[C@H](C(C)C)NC1=O	Toxic	Toxic
	28.2%	164 nM	373 nM		> 50000 nM	9 nM			CC[C@H](C)[C@@H]1NC(=O)CNC(=O)[C@H](CO)NC(=O)[C@H](CCCNC(=N)N)NC(=O)[C@H](CCCNC(=N)N)NC(=O)[C@H]([C@@H](C)CC)NC(=O)[C@H](CCCNC(=N)N)NC(=O)[C@@H]2CCCN2C(=O)[C@H](Cc2ccc(O)cc2)NC(=O)CSC[C@@H](C(N)=O)N(C)C(=O)[C@H](Cc2c[nH]c3ccccc23)NC(=O)[C@H](CCCNC(=N)N)NC1=O ({CH2CO}-YPRIRRSGIRW[NMeC]-NH2; thioether N-12)		
	55.6%	12 nM	11 nM		> 50000 nM	14 nM			CC[C@H](C)[C@@H]1NC(=O)[C@H](CCCNC(=N)N)NC(=O)[C@H]([C@@H](C)CC)N(C)C(=O)[C@H](Cc2ccc(O)cc2)NC(=O)CSC[C@@H](C(N)=O)NC(=O)[C@H](Cc2c[nH]c3ccccc23)NC(=O)[C@H](CC(C)C)NC(=O)[C@H](Cc2c[nH]c3ccccc23)NC(=O)CNC(=O)[C@H](CO)NC(=O)[C@H](CCCNC(=N)N)NC(=O)[C@H](CCCNC(=N)N)NC1=O ({CH2CO}-Y[NMeI]RIRRSGWLWC-NH2; thioether N-12)		
